Test results as given in patent publication US6472348B1, “Pyridone derivatives and herbicides” (Kumiai Chemical Industry Co., Ltd., priority 1996, dated 2002).

What was measured:
Format in all cases: in vivo
Digitaria ciliaris (Di) = assay: Test Example 2: herbicidal effects by upland field soil treatment; conditions: 100 g of the active ingredient per 10 ares;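 note: grade of growth control; 5 = at least 90%; 4 = 70 to 90%; 3 = 50 to 70%; 2 = 30 to 50%; 1 = 10 to 30%; 0 = under 10%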
Excerpt: (§1) (Test on Herbicidal Effects by Upland Field Soil Treatment)

barnyardgrass (Ec) [1] = assay: as above; conditions: 100 g of the active ingredient per 10 ares
Excerpt: as §1

pale smartweed (Po) [2] = assay: as above; conditions: 100 g of the active ingredient per 10 ares
Excerpt: as §1

rice flatsedge (Ci) [3] = assay: as above; conditions: 100 g of the active ingredient per 10 ares
Excerpt: as §1

[4] = tested on: common lambsquarters (Ch); assay: as above; conditions: 100 g of the active ingredient per 10 ares
Excerpt: as §1

slender amaranth (Am) [5] = assay: as above; conditions: 100 g of the active ingredient per 10 ares
Excerpt: as §1

barnyardgrass (Ec) [6] = assay: Test Example 1: herbicidal effects by paddy field soil treatment; conditions: 100 g of the active ingredient per 10 ares, 21st day after the application, index 0-5 of Table 47;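 note: grade of growth control; 5 = at least 90%; 4 = 70 to 90%; 3 = 50 to 70%; 2 = 30 to 50%; 1 = 10 to 30%; 0 = under 10%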
Experimental: (§2) (Test on Herbicidal Effects by Paddy Field Soil Treatment)
(§3) In a plastic pot (surface area: 100 cm^2) filled with paddy field soil, barnyardgrass (Ec), monochoria (Mo) and bulrush (Sc) were sown after puddling and leveling, and flooded to a water depth of 3 cm. […] The dose was 100 g of the active ingredient per 10 ares. The plants were then cultured in a green house, and the evaluation of the herbicidal effects was conducted on the 21st day after the application in accordance with the standards as identified in Table 47.

bulrush (Sc) = assay: as above; conditions: 100 g of the active ingredient per 10 ares, 21st day after the application, index 0-5 of Table 47;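 note: grade of growth control; 5 = at least 90%; 4 = 70 to 90%; 3 = 50 to 70%; 2 = 30 to 50%; 1 = 10 to 30%; 0 = under 10%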
Experimental: as §2, §3

monochoria (Mo) = assay: as above; conditions: 100 g of the active ingredient per 10 ares, 21st day after the application, index 0-5 of Table 47;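 note: grade of growth control; 5 = at least 90%; 4 = 70 to 90%; 3 = 50 to 70%; 2 = 30 to 50%; 1 = 10 to 30%; 0 = under 10%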
Experimental: as §2, §3

barnyardgrass (Ec) [7] = assay: Test Example 3: herbicidal effects by upland field foliage treatment; parameters: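 grade of growth control; 5 = at least 90%; 4 = 70 to 90%; 3 = 50 to 70%; 2 = 30 to 50%; 1 = 10 to 30%; 0 = under 10%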; conditions: 100 g of the active ingredient per 10 ares, evaluated on the 14th day after treatment
Experimental: (§4) (Test on Herbicidal Effects by Upland Field Foliage Treatment)
(§5) In a plastic pot (surface area: 120 cm^2) filled with sand, barnyardgrass (Ec), Diaitaria ciliaris (Di), pale smartweed (Po), slender amaranth (Am), common lambsquarters (Ch) and rice flatsedge (Ci) were sown and covered with soil and were cultured in a green house for 2 weeks. […] The plants were then cultured in the green house, and the evaluation of the herbicidal effects was conducted on the 14th day after the treatment in accordance with the standards as identified in Table 47. Symbol—represents “not tested”.

pale smartweed (Po) [8] = assay: as above; parameters: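 grade of growth control; 5 = at least 90%; 4 = 70 to 90%; 3 = 50 to 70%; 2 = 30 to 50%; 1 = 10 to 30%; 0 = under 10%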; conditions: 100 g of the active ingredient per 10 ares, evaluated on the 14th day after treatment
Experimental: as §4, §5

rice flatsedge (Ci) [9] = assay: as above; parameters: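 grade of growth control; 5 = at least 90%; 4 = 70 to 90%; 3 = 50 to 70%; 2 = 30 to 50%; 1 = 10 to 30%; 0 = under 10%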; conditions: 100 g of the active ingredient per 10 ares, evaluated on the 14th day after treatment
Experimental: as §4, §5

Diaitaria ciliaris (Di) = assay: as above; parameters: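 grade of growth control; 5 = at least 90%; 4 = 70 to 90%; 3 = 50 to 70%; 2 = 30 to 50%; 1 = 10 to 30%; 0 = under 10%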; conditions: 100 g of the active ingredient per 10 ares, evaluated on the 14th day after treatment
Experimental: as §4, §5

[10] = tested on: common lambsquarters (Ch); assay: as above; parameters: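 grade of growth control; 5 = at least 90%; 4 = 70 to 90%; 3 = 50 to 70%; 2 = 30 to 50%; 1 = 10 to 30%; 0 = under 10%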; conditions: 100 g of the active ingredient per 10 ares, evaluated on the 14th day after treatment
Experimental: as §4, §5

slender amaranth (Am) [11] = assay: as above; parameters: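 grade of growth control; 5 = at least 90%; 4 = 70 to 90%; 3 = 50 to 70%; 2 = 30 to 50%; 1 = 10 to 30%; 0 = under 10%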; conditions: 100 g of the active ingredient per 10 ares, evaluated on the 14th day after treatment
Experimental: as §4, §5

[12] = 21st day after the application, index 0-5 of Table 47
[13] = evaluated on the 21st day after application

Structure (SMILES) | Herbicidal effects Ec (barnyardgrass (Ec) [1]; [12]) | Herbicidal effects Po (pale smartweed (Po) [2]; [12]) | Herbicidal effects Ci (rice flatsedge (Ci) [3]; [12]) | Herbicidal effects Ch [4, 12] | Herbicidal effects Am (slender amaranth (Am) [5]; [12]) | Herbicidal effects Ec (barnyardgrass (Ec) [6]) | Herbicidal effects Sc (bulrush (Sc)) | Herbicidal effects Mo (monochoria (Mo)) | Herbicidal effects Di (Digitaria ciliaris (Di); [13]) | Herbicidal effects Ec (barnyardgrass (Ec) [1]; [13]) | Herbicidal effects Po (pale smartweed (Po) [2]; [13]) | Herbicidal effects Ci (rice flatsedge (Ci) [3]; [13]) | Herbicidal effects Ch [4, 13] | Herbicidal effects Am (slender amaranth (Am) [5]; [13]) | further results
Cn1c(C(F)(F)F)ccc(-c2cc(Oc3nc(Cl)cs3)c(Cl)cc2F)c1=O [1-103] | 4 | 5 | 5 | 5 | 5 | 5 | 5 | 5 | – | – | – | – | – | – | Herbicidal effects Di (Digitaria ciliaris (Di); [12]): 5
COc1cc(-c2ccc(C(F)(F)F)n(C)c2=O)ccc1Cl [1-108] | 5 | 5 | 5 | 5 | 5 | 5 | 5 | 5 | – | – | – | – | – | – | Herbicidal effects Ec (barnyardgrass (Ec) [7]): 5; Herbicidal effects Po (pale smartweed (Po) [8]): 5; Herbicidal effects Ci (rice flatsedge (Ci) [9]): 5; Herbicidal effects Di (Diaitaria ciliaris (Di)): 5; Herbicidal effects Ch [10]: 5; Herbicidal effects Am (slender amaranth (Am) [11]): 5
C#CCSc1cc(-c2ccc(C(F)(F)F)n(C)c2=O)ccc1Cl [1-112] | 5 | 5 | 5 | 5 | 5 | 5 | 5 | 5 | – | – | – | – | – | – | Herbicidal effects Di (Digitaria ciliaris (Di); [12]): 5
Cn1c(C(F)(F)F)ccc(-c2cc(Sc3ncccn3)c(Cl)cc2Cl)c1=O [1-131] | 5 | 5 | 5 | 5 | 5 | 5 | 5 | 5 | – | – | – | – | – | – | Herbicidal effects Di (Digitaria ciliaris (Di); [12]): 5
Cn1c(C(F)(F)F)ccc(-c2ccc(Cl)c(Cl)c2)c1=O [Compound 1-185] | – | – | – | – | – | – | – | – | 5 | 5 | 4 | 5 | 5 | 5 | –
Cn1c(C(F)(F)F)ccc(-c2cc(Cl)c(Cl)cc2Cl)c1=O [Compound 1-186] | – | – | – | – | – | 5 | 4 | 5 | 5 | 5 | 5 | 5 | 5 | 5 | –
CNC(=O)COc1cc(-c2ccc(C(F)(F)F)n(C)c2=O)c(F)cc1Cl [Compound 1-209] | – | – | – | – | – | 5 | 5 | 5 | 4 | 4 | 5 | 5 | 5 | 5 | –
CNS(=O)(=O)c1cc(-c2ccc(C(F)(F)F)n(C)c2=O)ccc1Cl [Compound 1-257] | – | – | – | – | – | 5 | 5 | 5 | 5 | 5 | 5 | 5 | 5 | 5 | –
C#CCN1C(=O)CSc2cc(F)c(-c3ccc(C(F)(F)F)n(C)c3=O)cc21 [Compound 2-21] | – | – | – | – | – | 5 | 5 | 5 | 5 | 5 | 5 | 5 | 5 | 5 | –
Cn1c(C(F)(F)F)ccc(-c2cc3c(cc2Cl)OCC(=O)N3)c1=O [Compound 2-27] | – | – | – | – | – | 5 | 5 | 5 | 5 | 5 | 5 | 5 | 5 | 5 | –
COCc1cc2c(-c3ccc(C(F)(F)F)n(C)c3=O)c(Cl)cc(Cl)c2o1 [Compound 4-13] | – | – | – | – | – | 5 | 5 | 5 | 5 | 5 | 5 | 5 | 5 | 5 | –
CCOCc1cc2c(-c3ccc(C(F)(F)F)n(C)c3=O)c(Cl)cc(Cl)c2o1 [Compound 4-30] | – | – | – | – | – | 5 | 5 | 5 | 5 | 5 | 5 | 5 | 5 | 5 | –
Cn1c(C(F)(F)F)ccc(-c2ccc(Cl)cc2)c1=O [Compound No. 1-1] | 5 | 5 | 5 | 5 | 5 | 5 | 5 | 5 | – | – | – | – | – | – | Herbicidal effects Di (Digitaria ciliaris (Di); [12]): 5
CCOC(=O)COc1cc(-c2ccc(C(F)(F)F)n(C)c2=O)c(F)cc1Cl [Compound No. 1-19] | – | – | – | – | – | 5 | 5 | 5 | – | – | – | – | – | – | Herbicidal effects Ec (barnyardgrass (Ec) [7]): 5; Herbicidal effects Po (pale smartweed (Po) [8]): 5; Herbicidal effects Ci (rice flatsedge (Ci) [9]): 5; Herbicidal effects Di (Diaitaria ciliaris (Di)): 5; Herbicidal effects Ch [10]: 5; Herbicidal effects Am (slender amaranth (Am) [11]): 5
C#CCOc1cc(-c2c(C#N)cc(C(F)(F)F)n(C)c2=O)c(F)cc1Cl [Compound No. 11-6, 3-[2-fluoro-4-chloro-5-(2-propionyloxy)phenyl]-4-cyano-1-methyl-6-trifluoromethyl-2(1H)-pyridone] | – | – | – | – | – | 5 | 5 | 5 | 5 | 5 | 5 | 5 | 5 | 5 | –
Cc1ccc(-c2ccc(Cl)cc2)c(=O)[nH]1 [comparative agent, reference compound] | – | – | – | – | – | – | – | – | 0 | 0 | 0 | 0 | 0 | 0 | –
